According to ChEMBL document CHEMBL1139749, “Design, synthesis and in vivo activity of 9-(S)-dihydroerythromycin derivatives as potent anti-inflammatory agents” (2006):

The compounds below were run on Mus musculus (assay: Antiinflammatory activity in topically dosed CD1 mouse assessed as inhibition of PMA-induced ear edema at 0.5 mg/ear).
Assay type: functional

| Structure (SMILES) | Inhibition |
| --- | --- |
| CC[C@H]1OC(=O)[C@H](C)[C@@H](O[C@H]2C[C@@](C)(OC)[C@@H](O)[C@H](C)O2)[C@H](C)[C@@H](O[C@H]2O[C@@H](C)C[C@@H](N(C)C(=O)CNCCNCc3ccccc3)[C@@H]2O)[C@](C)(O)C[C@@H](C)[C@H](O)[C@H](C)[C@@H](O)[C@]1(C)O | 87% |
| CC[C@H]1OC(=O)[C@H](C)[C@@H](O)[C@H](C)[C@@H](O[C@H]2O[C@@H](C)C[C@@H](N(C)CCCNCc3nccs3)[C@@H]2O)[C@](C)(O)C[C@@H](C)[C@H](O)[C@H](C)[C@@H](O)[C@]1(C)O | 53% |
| CC[C@H]1OC(=O)[C@H](C)[C@@H](O[C@H]2C[C@@](C)(OC)[C@@H](O)[C@H](C)O2)[C@H](C)[C@@H](O[C@H]2O[C@@H](C)C[C@@H](N(C)C(=O)CNCCN(C)C)[C@@H]2O)[C@](C)(O)C[C@@H](C)[C@H](O)[C@H](C)[C@@H](O)[C@]1(C)O | 31% |
| CC[C@H]1OC(=O)[C@H](C)[C@@H](O)[C@H](C)[C@@H](O[C@H]2O[C@@H](C)C[C@@H](N(C)C(C)=O)[C@@H]2O)[C@](C)(O)C[C@@H](C)[C@H](O)[C@H](C)[C@@H](O)[C@]1(C)O | 66% |
| CC[C@H]1OC(=O)[C@H](C)[C@@H](O)[C@H](C)[C@@H](O[C@H]2O[C@@H](C)C[C@@H](NCCNCCNCc3nccs3)[C@@H]2O)[C@](C)(O)C[C@@H](C)[C@H](O)[C@H](C)[C@@H](O)[C@]1(C)O | 45% |
| CC[C@H]1OC(=O)[C@H](C)[C@@H](O[C@H]2C[C@@](C)(OC)[C@@H](O)[C@H](C)O2)[C@H](C)[C@@H](O[C@H]2O[C@@H](C)C[C@@H](N(C)Cc3ccccc3)[C@@H]2O)[C@](C)(O)C[C@@H](C)[C@H](O)[C@H](C)[C@@H](O)[C@]1(C)O | 58% |
| CC[C@H]1OC(=O)[C@H](C)[C@@H](O[C@H]2C[C@@](C)(OC)[C@@H](O)[C@H](C)O2)[C@H](C)[C@@H](O[C@H]2O[C@@H](C)C[C@@H](NCCNCCNCc3nccs3)[C@@H]2O)[C@](C)(O)C[C@@H](C)[C@H](O)[C@H](C)[C@@H](O)[C@]1(C)O | 43% |
| CC[C@H]1OC(=O)[C@H](C)[C@@H](O[C@H]2C[C@@](C)(OC)[C@@H](O)[C@H](C)O2)[C@H](C)[C@@H](O[C@H]2O[C@@H](C)C[C@@H](N(C)C(=O)CNCCC(C)C)[C@@H]2O)[C@](C)(O)C[C@@H](C)[C@H](O)[C@H](C)[C@@H](O)[C@]1(C)O | 18% |
| CC[C@H]1OC(=O)[C@H](C)[C@@H](O[C@H]2C[C@@](C)(OC)[C@@H](O)[C@H](C)O2)[C@H](C)[C@@H](O[C@H]2O[C@@H](C)C[C@@H](N(C)C(=O)CNCc3ccccc3)[C@@H]2O)[C@](C)(O)C[C@@H](C)[C@H](O)[C@H](C)[C@@H](O)[C@]1(C)O | 71% |
| CC[C@H]1OC(=O)[C@H](C)[C@@H](O[C@H]2C[C@@](C)(OC)[C@@H](O)[C@H](C)O2)[C@H](C)[C@@H](O[C@H]2O[C@@H](C)C[C@@H](N(C)CCCNCc3nccs3)[C@@H]2O)[C@](C)(O)C[C@@H](C)[C@H](O)[C@H](C)[C@@H](O)[C@]1(C)O | 74% |
| CC[C@H]1OC(=O)[C@H](C)[C@@H](O[C@H]2C[C@@](C)(OC)[C@@H](O)[C@H](C)O2)[C@H](C)[C@@H](O[C@H]2O[C@@H](C)C[C@@H](N(C)C(C)=O)[C@@H]2O)[C@](C)(O)C[C@@H](C)[C@H](O)[C@H](C)[C@@H](O)[C@]1(C)O | 79% |
| CC[C@H]1OC(=O)[C@H](C)[C@@H](O[C@H]2C[C@@](C)(OC)[C@@H](O)[C@H](C)O2)[C@H](C)[C@@H](O[C@@H]2O[C@H](C)C[C@H](N(C)C)[C@H]2O)[C@](C)(O)C[C@@H](C)C(=O)[C@H](C)[C@@H](O)[C@]1(C)O [ERYTHROMYCIN] | 42% |
